According to ChEMBL document CHEMBL3853288, “Biginkgosides A-I, Unexpected Minor Dimeric Flavonol Diglycosidic Truxinate and Truxillate Esters from Ginkgo biloba Leaves and Their Antineuroinflammatory and Neuroprotective Activities” (J Nat Prod, 2016):

Key:
[1] = Antineuroinflammatory activity in mouse BV2 cells assessed as inhibition of LPS-induced NO production incubated for 4 hrs followed by LPS stimulation for 24 hrs by Griess assay; assay type: functional, cell-based; conditions: BV-2
[2] = Cytotoxicity against LPS-stimulated mouse BV2 cells assessed as cell viability at 20 uM incubated for 4 hrs followed by LPS stimulation for 24 hrs by MTT assay; assay type: toxicity, BV-2; conditions: read-out: Activity
SH-SY5Y [3] = test: Neuroprotection against amyloid beta (25 to 35)-induced cell toxicity in human SH-SY5Y cells assessed as cell viability at 1 uM incubated for 2 hrs followed by amyloid beta (25 to 35) treatment for 24 hrs by MTT assay (reference value: 62.4 +/- 3.5%); assay type: functional; conditions: read-out: Activity
SH-SY5Y [4] = test: Neuroprotection against amyloid beta (25 to 35)-induced cell toxicity in human SH-SY5Y cells assessed as cell viability at 10 uM incubated for 2 hrs followed by amyloid beta (25 to 35) treatment for 24 hrs by MTT assay (reference value: 62.4 +/- 3.5%); assay type: functional; conditions: read-out: Activity

Row | IC50 [1] | SMILES | further results
1 | > 100 µM | C[C@@H]1O[C@@H](Oc2c(-c3ccc(O)cc3)oc3cc(O)cc(O)c3c2=O)[C@H](O[C@@H]2O[C@H](COC(=O)[C@@H]3[C@H](C(=O)OC[C@H]4O[C@@H](O[C@H]5[C@H](Oc6c(-c7ccc(O)cc7)oc7cc(O)cc(O)c7c6=O)O[C@@H](C)[C@H](O)[C@H]5O)[C@H](O)[C@@H](O)[C@@H]4O)[C@@H](c4ccc(O)cc4)[C@H]3c3ccc(O)cc3)[C@@H](O)[C@H](O)[C@H]2O)[C@H](O)[C@H]1O | –
2 | > 100 µM | C[C@@H]1O[C@@H](Oc2c(-c3ccc(O)c(O)c3)oc3cc(O)cc(O)c3c2=O)[C@H](O[C@@H]2O[C@H](COC(=O)[C@H]3[C@H](c4ccc(O)cc4)[C@@H](C(=O)OC[C@H]4O[C@@H](O[C@H]5[C@H](Oc6c(-c7ccc(O)c(O)c7)oc7cc(O)cc(O)c7c6=O)O[C@@H](C)[C@H](O)[C@H]5O)[C@H](O)[C@@H](O)[C@@H]4O)[C@@H]3c3ccc(O)cc3)[C@@H](O)[C@H](O)[C@H]2O)[C@H](O)[C@H]1O | –
3 | > 100 µM | C[C@@H]1O[C@@H](Oc2c(-c3ccc(O)cc3)oc3cc(O)cc(O)c3c2=O)[C@H](O[C@@H]2O[C@H](COC(=O)[C@H]3[C@H](C(=O)OC[C@H]4O[C@@H](O[C@H]5[C@H](Oc6c(-c7ccc(O)cc7)oc7cc(O)cc(O)c7c6=O)O[C@@H](C)[C@H](O)[C@H]5O)[C@H](O)[C@@H](O)[C@@H]4O)[C@@H](c4ccc(O)cc4)[C@@H]3c3ccc(O)cc3)[C@@H](O)[C@H](O)[C@H]2O)[C@H](O)[C@H]1O | –
4 | 2.91 µM | C[C@@H]1O[C@@H](Oc2c(-c3ccc(O)c(O)c3)oc3cc(O)cc(O)c3c2=O)[C@H](O[C@@H]2O[C@H](COC(=O)[C@H]3[C@H](C(=O)OC[C@H]4O[C@@H](O[C@H]5[C@H](Oc6c(-c7ccc(O)c(O)c7)oc7cc(O)cc(O)c7c6=O)O[C@@H](C)[C@H](O)[C@H]5O)[C@H](O)[C@@H](O)[C@@H]4O)[C@@H](c4ccc(O)cc4)[C@@H]3c3ccc(O)cc3)[C@@H](O)[C@H](O)[C@H]2O)[C@H](O)[C@H]1O | viability at 24 h, 20 µM [2]: 99%
5 | > 100 µM | C[C@@H]1O[C@@H](Oc2c(-c3ccc(O)cc3)oc3cc(O)cc(O)c3c2=O)[C@H](O[C@@H]2O[C@H](COC(=O)[C@H]3[C@H](C(=O)OC[C@H]4O[C@@H](O[C@H]5[C@H](Oc6c(-c7ccc(O)c(O)c7)oc7cc(O)cc(O)c7c6=O)O[C@@H](C)[C@H](O)[C@H]5O)[C@H](O)[C@@H](O)[C@@H]4O)[C@@H](c4ccc(O)cc4)[C@@H]3c3ccc(O)cc3)[C@@H](O)[C@H](O)[C@H]2O)[C@H](O)[C@H]1O | viability at 1 µM (SH-SY5Y [3]): 96.7%
6 | – | O=C(O[C@@H]1Cc2c(O)cc(O)cc2O[C@@H]1c1cc(O)c(O)c(O)c1)c1cc(O)c(O)c(O)c1 [EPIGALOCATECHIN GALLATE] | viability at 10 µM (SH-SY5Y [4]): 99%
7 | > 100 µM | C[C@@H]1O[C@@H](Oc2c(-c3ccc(O)cc3)oc3cc(O)cc(O)c3c2=O)[C@H](O[C@@H]2O[C@H](COC(=O)[C@@H]3[C@@H](C(=O)OC[C@H]4O[C@@H](O[C@H]5[C@H](Oc6c(-c7ccc(O)cc7)oc7cc(O)cc(O)c7c6=O)O[C@@H](C)[C@H](O)[C@H]5O)[C@H](O)[C@@H](O)[C@@H]4O)[C@@H](c4ccc(O)cc4)[C@@H]3c3ccc(O)cc3)[C@@H](O)[C@H](O)[C@H]2O)[C@H](O)[C@H]1O | –
8 | 17.2 µM | C[C@@H]1O[C@@H](Oc2c(-c3ccc(O)cc3)oc3cc(O)cc(O)c3c2=O)[C@H](O[C@@H]2O[C@H](COC(=O)[C@H]3[C@H](c4ccc(O)cc4)[C@@H](C(=O)OC[C@H]4O[C@@H](O[C@H]5[C@H](Oc6c(-c7ccc(O)cc7)oc7cc(O)cc(O)c7c6=O)O[C@@H](C)[C@H](O)[C@H]5O)[C@H](O)[C@@H](O)[C@@H]4O)[C@@H]3c3ccc(O)cc3)[C@@H](O)[C@H](O)[C@H]2O)[C@H](O)[C@H]1O | viability at 24 h, 20 µM [2]: 97.7%
9 | > 100 µM | C[C@@H]1O[C@@H](Oc2c(-c3ccc(O)c(O)c3)oc3cc(O)cc(O)c3c2=O)[C@H](O[C@@H]2O[C@H](COC(=O)[C@@H]3[C@H](C(=O)OC[C@H]4O[C@@H](O[C@H]5[C@H](Oc6c(-c7ccc(O)c(O)c7)oc7cc(O)cc(O)c7c6=O)O[C@@H](C)[C@H](O)[C@H]5O)[C@H](O)[C@@H](O)[C@@H]4O)[C@@H](c4ccc(O)cc4)[C@H]3c3ccc(O)cc3)[C@@H](O)[C@H](O)[C@H]2O)[C@H](O)[C@H]1O | –
10 | > 100 µM | C[C@@H]1O[C@@H](Oc2c(-c3ccc(O)cc3)oc3cc(O)cc(O)c3c2=O)[C@H](O[C@@H]2O[C@H](COC(=O)[C@@H]3[C@H](C(=O)OC[C@H]4O[C@@H](O[C@H]5[C@H](Oc6c(-c7ccc(O)cc7)oc7cc(O)cc(O)c7c6=O)O[C@@H](C)[C@H](O)[C@H]5O)[C@H](O)[C@@H](O)[C@@H]4O)[C@@H](c4ccc(O)cc4)[C@@H]3c3ccc(O)cc3)[C@@H](O)[C@H](O)[C@H]2O)[C@H](O)[C@H]1O | –
11 | – | CNC(=N)NCCC[C@H](N)C(=O)O [TILARGININE] | viability at 24 h, 20 µM [2]: 98.5%
